{
  "source": "patent US9468225B2",
  "about": "“Oral compositions” (Symrise AG, priority 2013, dated 2016)",
  "key": {"[1]": {"tested_on": "human neuroblastoma cells (SH-SY5Y)", "assay": "Serotonin release by SH-SY5Y cells after 3-minute stimulation with alkamides (Serotonin-ELISA, normalized to DNA)", "assay_type": "cell-based", "conditions": "for Serotonin release T/C [%]: relative to EtOH control, 3 min stimulation", "experimental": "(§1) The cell model used for the release of the neurotransmitters dopamine and serotonin are human neuroblastoma cells (SH-SY5Y, ATCC Number CRL-2266). Cultivation is performed at 37° C. and with a 5% CO2 content using a mixture containing at equal parts Eagle's Minimum Essential Medium (MEM) and F12 Medium (each having 10% FBS and 1% Penicillin/Streptomycin). To measure the release of dopamine and serotonin, the cells are harvested with trypsin and seeded, after a vitality check using trypan blue tests, in a defined cell number in 35 mm cell culture dishes.\nAfter a 3-minute stimulation of 1.25*10^6 human neuroblastoma cells (SH-SY5Y) with 300 μL Krebs-Ringer-HEPES buffer, 0.1% ascorbic acid, pH 6.2, with, or without, the addition of an alkamide (trans-Pellitorine, dihydropellitorine, spilanthol, wherein when adding the alkamide in concentrations of 0.001 μM, 0.1 μM 1 μM and 10 μM within the Krebs-Ringer-HEPES buffer is adjusted), the serotonin content is detected by means of an enzyme-based method of detection (Serotonin-ELISA sensitive, DLD Diagnostica, Hamburg, Germany). The cells are lysed with a buffer containing sodium lauryl sarcosinate and the DNA content is detected by means of a NanoQuant plate (Tecan, Ménnendorf, Switzerland) to normalize serotonin release.\nFIGS. 1a and 1b represent the release of serotonin after incubation with t-pellitorine (2) (FIG. 1A) in concentrations of 0.001 μM, 0.1 μM, 1 μM and 10 μM or other alkamides (FIG. 1B: 1=t-pellitorine, 2=dihydropellitorine, 3=spilanthol)). Results are represented in % relative to control (buffer with 0.1% ethanol) n=3, tR=2. Significant differences of control treatment were tested using a one-way ANOVA with a subsequent Holm-Sidak post hoc test and marked according to the following pattern: *p≦0.05; **p.≦0.01; ***p≦0.001."}, "3T3-L1 cells [2]": {"tested_on": "3T3-L1 cells", "assay": "Fatty acid uptake (BODIPY fatty acid) in 3T3-L1 adipocytes", "assay_type": "cell-based, murine", "conditions": "for Fatty acid uptake T/C [%]: 30 min preincubation, area below the curve over 60 min vs ethanol control", "experimental": "(§2) The cell model used for short-term uptake of free fatty acids and long-term lipid accumulation in the adipocytes are murine fibroblasts (3T3-L1, ATTC Number CL-173) after the cells differentiated to form adipocytes. 3T3-L1 fibroblasts are cultivated at 37° C. and a 5% CO2 content with Dulbecco's Modified Eagle Medium (DMEM) having 10% FBS, 4% L-Glutamin and 1% Penicillin/Streptomycin (=basal medium). Adipocyte differentiation occurs two days after reaching confluence by adding 10 μg/L Insulin, 1 μM dexamethasone and 0.5 mM Isobutylmethylxanthin into the culture medium (=differentiation medium). After two days of cultivation in differentiation medium the adipocytes are allowed to mature for two further days by adding 10 μg/L insulin into the culture medium (=maturation medium). After having spent between three and five days in basal medium, the adipocytes are optimally differentiated and show by inclusion of lipid droplets the phenotype that is typical for adipocytes. Human colon cell line CaCo-2 (ATCC Number HTB-37) is used as a cell model for the uptake of free fatty acids by the small intestine after they have differentiated to form a phenotype corresponding to enterocytes. CaCo-2 cells are cultivated at 37° C. with a 5% CO2 content with Dulbecco's Modified Eagle Medium (DMEM) with 10% FBS, 2% L-glutamin and 1% penicillin/streptomycin. Enterocyte differentiation is performed by cultivating the cells in a period of 18 days after they reach confluence.\nAfter differentiation of 3T3-L1 fibroblasts to form adipocytes, 65000 cells per well are seeded in a 96 well plate and incubated at 37° C. for four hours with basal medium (DMEM+10% fetal bovine serum) and then incubated for an hour with serum-free medium. The cells were pre-treated with 0.1 μM, 1 μM and 10 μM t-pellitorine for 30 minutes. The uptake of free fatty acids into the cells was measured by means of the fluorescence-marked fatty acid BODIPY® (QBT Fatty Acid Uptake Corporation, Germany) with a fluorescence microplate reading device (Tecan, Ménnendorf, Switzerland) every 20 seconds for a period of 60 minutes.\nThe results are represented as an area below the curve after measuring of 60 minutes in comparison with control (1, buffer with 0.1% Ethanol). n=3, tR=2-3. Significant differences between the treatment and control were tested by means of an one-way ANOVA followed by a Holm-Sidak post hoc test and marked according to the following pattern: *p≦0.05; **p.≦0.01; ***p≦0.001"}, "[3]": {"tested_on": "human neuroblastoma cells (SH-SY5Y)", "assay": "Dopamine release by SH-SY5Y cells after 3-minute stimulation with trans-pellitorine (Dopamin-ELISA, normalized to DNA)", "assay_type": "cell-based", "conditions": "for Dopamine release T/C [%]: relative to EtOH control, 3 min stimulation", "experimental": "as §1\nAfter a 3-minute stimulation of 1.25*10^6 of human neuroblastoma cells (SH-SY5Y) with 350 μL Krebs-Ringer-HEPES Puffer (1), pH 5, with or without the addition of trans-pellitorine (2) in concentrations of 0.001 μM, 0.1 μM, 1 μM and 10 μM the supernatant is acidified with 1 N HCl and the dopamine content is determined by means of an enzyme-based method of detection (Dopamin-ELISA, DLD Diagnostica, Hamburg, Germany). The cells are lysed with a buffer containing sodium lauryl sarcosinate and the DNAN content is determined by means of a NanoQuant plant (Tecan, Ménnendorf, Switzerland) for normalization of dopamine release. During an ethanol control (EtOH control) no trans-pellitorine is added to the Krebs-Ringer-HEPES buffer, but ethanol is added to the buffer such that a 0.1% ethanolic Krebs-Ringer-HEPES buffer solution is obtained.\nFIG. 2 represents the release of dopamin after incubation with t-pellitorine (2) in concentrations of 0.001 μM, 0.1 μM, 1 μM and 10 μM. The results are represented in a […] expressed in percent (buffer with 0.1% ethanol). n=3, tR=2. Significant differences between the treatments and control were tested using a one-way ANOVA with a subsequent Holm-Sidak post hoc test and marked according to the following pattern: *p≦0.05; **p.≦0.01; ***p≦0.001."}, "3T3-L1 cells [4]": {"tested_on": "3T3-L1 cells", "assay": "Long time lipid accumulation (Oil-Red O) in 3T3-L1 adipocytes", "assay_type": "cell-based, murine", "conditions": "10 days treatment, vs ethanol control", "experimental": "as §2, with “confluence. After differentiation of the 3T3-L1 fibroblasts to form adipocytes the cells are treated for 10 days with trans-pellitorine in concentrations of 0.001 μM, μM 0.1 μM, 1 μM and 10 μM and a final concentration of 10 μg/L insulin. […] The dye Oil-Red 0 is subsequently removed by means of 100% isopropanol, and absorption of the Oil-Red 0 solution, which behaves proportionally to the lipid droplets of the cells, was determined by means of a microplate reading device (Tecan, Ménnendorf, Switzerland). […]” for “confluence.”"}, "[5]": {"tested_on": "differentiated CaCo-2 cells", "assay": "Fatty acid uptake (BODIPY fatty acid) in differentiated CaCo-2 cells", "assay_type": "cell-based, human", "conditions": "for Fatty acid uptake T/C [%]: 30 min preincubation, area below the curve over 60 min vs ethanol control", "experimental": "as §2, with “confluence. After differentiation of the CaCo-2 cells to form an enterocyte phenotype, the cells are incubated with serum-free medium for an hour. Subsequently the cells are pre-treated with 0.1 μM, 1 μM and 10 μM t-pellitorine for 30 minutes and the free fatty acid uptake into the cells was measured by means of the fluorescence marked fatty acid BODIPY® (QBT Fatty Acid Up-take Corporation, Germany) at a fluorescence microplate reading device (Tecan, Ménnendorf, Switzerland) every 20 seconds for a period of 60 minutes. […] The results are represented as an area below the curve after measuring for 60 minutes in comparison to control (1, buffer with 0.1% ethanol). n=3, tR=2-3. Significant differences between the treatment and control were tested by means of a one-way ANOVA followed by a Holm-Sidak post hoc test and marked according to the following pattern: *p≦0.05; **p.≦0.01; ***p≦0.001” for “confluence.”"}},
  "data": [
    {"molecule": "CCCCC/C=C/C=C/C(=O)NCC(C)C", "note": "[trans-pellitorine, 2E,4E-decadienic acid-N-isobutylamide]", "values": [
      {"measurement": "Serotonin release T/C [%]", "setting": "[1]; 0.001 μM", "value": 105.3, "unit": "%"},
      {"measurement": "Serotonin release T/C [%]", "setting": "[1]; 0.1 μM", "value": 140.2, "unit": "%"},
      {"measurement": "increase of the release of serotonin", "setting": "[1]; 100 nM, SH-SY5Y cells", "value": 40, "unit": "%"},
      {"measurement": "Serotonin release T/C [%]", "setting": "[1]; 1 μM", "value": 128.8, "unit": "%"},
      {"measurement": "Serotonin release T/C [%]", "setting": "[1]; 10 μM", "value": 93.02, "unit": "%"},
      {"measurement": "Fatty acid uptake T/C [%]", "setting": "3T3-L1 cells [2]; 0.1 μM", "value": 93.84, "unit": "%"},
      {"measurement": "Fatty acid uptake T/C [%]", "setting": "3T3-L1 cells [2]; 1 μM", "value": 96.63, "unit": "%"},
      {"measurement": "Fatty acid uptake T/C [%]", "setting": "3T3-L1 cells [2]; 10 μM", "value": 91.95, "unit": "%"},
      {"measurement": "reduction of fatty acid uptake in adipocytes", "setting": "3T3-L1 cells [2]; preincubation with 10 μM", "value": 9, "unit": "%"},
      {"measurement": "Dopamine release T/C [%]", "setting": "[3]; 0.001 μM", "value": 99.68, "unit": "%"},
      {"measurement": "Dopamine release T/C [%]", "setting": "[3]; 0.1 μM", "value": 182.7, "unit": "%"},
      {"measurement": "increase of dopamine release", "setting": "[3]; 100 nM, SH-SY5Y cells", "value": 80, "unit": "%"},
      {"measurement": "Dopamine release T/C [%]", "setting": "[3]; 1 μM", "value": 106.8, "unit": "%"},
      {"measurement": "Dopamine release T/C [%]", "setting": "[3]; 10 μM", "value": 127.3, "unit": "%"},
      {"measurement": "Lipid accumulation T/C [%]", "setting": "3T3-L1 cells [4]; 0.001 μM", "value": 94.60, "unit": "%"},
      {"measurement": "Lipid accumulation T/C [%]", "setting": "3T3-L1 cells [4]; 0.1 μM", "value": 92.94, "unit": "%"},
      {"measurement": "Lipid accumulation T/C [%]", "setting": "3T3-L1 cells [4]; 1 μM", "value": 93.46, "unit": "%"},
      {"measurement": "Fatty acid uptake T/C [%]", "setting": "[5]; 0.1 μM", "value": 107.8, "unit": "%"},
      {"measurement": "Fatty acid uptake T/C [%]", "setting": "[5]; 1 μM", "value": 98.7, "unit": "%"},
      {"measurement": "Fatty acid uptake T/C [%]", "setting": "[5]; 10 μM", "value": 97.8, "unit": "%"},
      {"measurement": "Fatty acid uptake T/C [%]", "setting": "[5]; 100 μM", "value": 86.0, "unit": "%"},
      {"measurement": "reduction of free fatty acid uptake in an enterocyte model", "setting": "[5]; preincubation with 100 μM, 30 minutes", "value": 14, "unit": "%"}
    ]},
    {"molecule": "CCCCCCC/C=C/C(=O)NCC(C)C", "note": "[Dihydropellitorine, 2E-decenoic acid-N-isobutylamide]", "values": [
      {"measurement": "Serotonin release T/C [%]", "setting": "[1]; 0.001 μM", "value": 140.9, "unit": "%"},
      {"measurement": "Serotonin release T/C [%]", "setting": "[1]; 0.1 μM", "value": 87.41, "unit": "%"},
      {"measurement": "Serotonin release T/C [%]", "setting": "[1]; 1 μM", "value": 124.3, "unit": "%"},
      {"measurement": "Serotonin release T/C [%]", "setting": "[1]; 10 μM", "value": 144.5, "unit": "%"}
    ]},
    {"molecule": "C/C=C/C=C\\CC/C=C/C(=O)NCC(C)C", "note": "[Spilanthol, 2E,6Z,8E-decatrienoic acid N-isobutylamide]", "values": [
      {"measurement": "Serotonin release T/C [%]", "setting": "[1]; 0.001 μM", "value": 105.6, "unit": "%"},
      {"measurement": "Serotonin release T/C [%]", "setting": "[1]; 0.1 μM", "value": 129.9, "unit": "%"},
      {"measurement": "Serotonin release T/C [%]", "setting": "[1]; 1 μM", "value": 103.8, "unit": "%"},
      {"measurement": "Serotonin release T/C [%]", "setting": "[1]; 10 μM", "value": 91.77, "unit": "%"}
    ]}
  ]
}
